According to PMC12048343, “Discovery of a small molecule secreted clusterin enhancer that improves memory in Alzheimer’s disease mice” (npj Drug Discovery, 2025):
In brackets after ≈: the same amount, converted by molar mass.

Experiments:
Kinetic solubility = assay type: physicochemical; settings: aqueous buffer, kinetic from dmso stock, PBS pH 7.4, 37 °C, 100 µM nominal
Procedure: Test compound (10 mM, 100% DMSO) was diluted separately into aqueous buffer (100 µM; PBS pH 7.4) and DMSO at various concentrations (1000, 100, 10, 1, 0.1 µM). The solutions were then incubated at 37 °C for 90 min and centrifuged (16000xg, 5 min). An aliquot of each supernatant was analyzed by UV/Vis (if possible) or LC-MS/MS. A standard curve was made by plotting the known amount of analyte per standard in DMSO vs. absorbance or chromatographic peak area. Kinetic solubility (mM) was calculated using the trendline equation with maximum absorbance or chromatographic peak area observed in the aqueous sample.

[1] = Liver microsome stability assay; assay type: in vitro ADME; settings: pH 7.4; human liver microsomes 0.5 mg/mL, NADPH, 37 °C, up to 120 min; read-out: Microsomal Stability t1/2
Procedure: An aliquot (1 µL) of test compound (1 mM, 100% DMSO) was added to an aqueous liver microsome solution (1000 µL, PBS pH 7.4, 0.5 mg/mL human liver microsomes (Thermo Fisher Scientific, Cat#HMMPL), 2 mM NADPH, 2 mM MgCl2) and incubated at 37 °C for 120 min. Aliquots (50 µL) of the microsome solution were taken at various time points (0, 5, 10, 15, 30, 60, 90, 120 min) and added to a reaction quenching solution (200 µL 100% Acetonitrile) containing an internal standard. Solutions were clarified by centrifugation (16,000 x g, 5 min), and the supernatants were transferred to new tubes and lyophilized. Samples were reconstituted in 100 µL of 50/50/0.1 (Water/Acetonitrile/Formic Acid) prior to analysis via liquid chromatography-tandem mass spectrometry (LC-MS/MS). Chromatographic peak areas normalized to the internal standard were plotted at each time point and the half-life (t1/2) of compound in liver microsomes was determined by using the trendline equation to calculate the time at which compound abundance was 50% of that at time point 0 (t0).

[2] = In-vivo pharmacokinetics, brain levels after oral administration; settings: mice
Procedure: Following oral administration of compound, mice brain tissue and plasma were collected after euthanasia and perfusion at 1, 2, 4, 6 and 8 h. All animals will be euthanized by ketamine/xylazine injection to allow cardiac puncture and saline perfusion, which is consistent with recommendations of the AVMA Panel on Euthanasia. Brain tissue were homogenized in a bead beater using 5 volumes of ice-cold 80% acetonitrile (1/5; mg of brain/µL of 80% ACN). Plasma analytes were extracted using 4 volumes of ice-cold acetonitrile (1/4; µL of plasma/µL of ACN). Solutions were clarified by centrifugation (16,000 x g, 5 min) and the supernatants were transferred to new tubes and lyophilized. Samples were reconstituted in 100 µL of 50/50/0.1 (Water/Acetonitrile/Formic Acid) prior to analysis via liquid chromatography-tandem mass spectrometry (LC-MS/MS). An internal standard (IS) was added to every sample to account for compound loss during sample processing. Standards were made in drug naïve plasma and brain lysates with increasing amounts of analyte (S1,S2: 0 pmol/ S3,S4: 1 pmol/ S5,S6: 10 pmol/ S7,S8: 100 pmol, S9,S10: 1000 pmol). The standard curve was made by plotting the known amount of analyte per standard vs. the ratio of measured chromatographic peak areas corresponding to the analyte over that of the IS (analyte/IS). The trendline equation was then used to calculate the absolute concentrations of each compound in plasma and brain tissue.
Analysis of compound levels was done at the UCLA Pasarow Mass Spectrometry Lab (PMSL; Julian Whitelegge, Ph.D., Director). A targeted LC-MS/MS assay was developed for each compound using the multiple reaction monitoring (MRM) acquisition method on a 6460 triple quadrupole mass spectrometer (Agilent Technologies) coupled to a 1290 Infinity HPLC system (Agilent Technologies) with a Phenomenex analytical column (Kinetex 1.7 µm C18 100 Å 100 ×2.1 mm). The HPLC method utilized a mixture of solvent A ([…]) and solvent B ([…]) and a gradient was use for the elution of the compounds (min/%B: 0/1, 3/1, 19/99, 20/1, 30/1). Two fragment ions originating from each compound were monitored at specific LC retention times to ensure specificity and accurate quantification in the complex biological samples. The normalized chromatographic peak areas were determined by taking the ratio of measured chromatographic peak areas corresponding to each compound over that of the internal standard (Analyte/IS).

[3] = Plasma binding assay (dialysis); assay type: in vitro ADME; settings: dialysis 4.5 hours, 37 °C
Procedure: Brain tissue was homogenized in PBS (pH 7.4) (1: 3 weight(mg)/volume(µL)) and the protein concentration was determined using the Micro BCA™ Protein Assay Kit (Thermo Fisher Scientific, Cat#23235). Brain homogenate was clarified and diluted to 20 mg/mL in PBS (pH 7.4). Either brain homogenate or plasma was and added to Slide-A-Lyzer™ MINI Dialysis Devices, 10 K MWCO dialysis cups (Thermo Fisher Scientific, Cat#PI88401) in a 48-well plate containing PBS (500 µL; pH 7.4). 1 µL of 1 mM compound was added to the brain homogenate (Final Concentration: 2 µM compound, 0.5% DMSO) and incubated on a rocker for 4.5 hours at 37 °C. 50 µL of brain homogenate or plasma (within the dialysis cup) and PBS (within the 48-well plate) were transferred to new microcentrifuge tubes containing 400 µL of quenching reagent (100% Acetonitrile) containing internal standard. Solutions were clarified by centrifugation (16,000 x g, 5 min), and the supernatants were transferred to new tubes and lyophilized. Samples were reconstituted in 100 µL of 50/50/0.1 (Water/Acetonitrile/Formic Acid) prior to analysis via liquid chromatography-tandem mass spectrometry (LC-MS/MS). The % of the unbound drug (fu,bound) was calculated using the following equation:
% Bound = [1− (PBS chromatographic peak area/ brain homogenate or plasma chromatographic peak area)] x 100

| Structure (SMILES) | solubility kinetic at 90 min (Kinetic solubility) | half-life at 1 µM [1] | unbound brain concentration versus sCLU EC50 ([2]; oral 3, 10 or 30 mg/kg (Fig. S6)) | Plasma Binding [3] | unbound brain concentration versus sCLU EC50 ([2]; oral 3 mg/kg, one hour post administration) | unbound brain concentration versus sCLU EC50 ([2]; oral 10 mg/kg, one hour post administration) | maximum brain concentration (total) ([2]; oral 30 mg/kg, one hour after administration) | concentration at 1 h ([2]; mouse, oral 30 mg/kg, 1 h, from total brain level and brain tissue binding 75.3%, read-out: unbound brain concentration) |
| --- | --- | --- | --- | --- | --- | --- | --- | --- |
| Cc1sc2c(c1C)C(c1ccc(Cl)cc1)=N[C@@H](CC(=O)OC1COC1)c1nnc(C)n1-2 [DDL-356] | > 100 µM | 1.25 h | reaches higher concentrations of unbound drug in the brain above its sCLU EC50 at lower doses | 79 % bound |  |  |  |  |
| Cc1sc2c(c1C)C(c1ccc(Cl)cc1)=N[C@@H](CC(=O)OC1CC1)c1nnc(C)n1-2 [DDL-357] | 80 µM (≈ 35.3 µg/mL) | 1.02 h |  | 88 % bound | below the sCLU EC50 | below the sCLU EC50 | 1850 nM | 457 nM |
